In PMC10114980, “Triple targeting of mutant EGFR^L858R/T790M, COX-2, and 15-LOX: design and synthesis of novel quinazolinone tethered phenyl urea derivatives for anti-inflammatory and anticancer evaluation” (Journal of Enzyme Inhibition and Medicinal Chemistry, 2023):

Experiments:
soybean 15-LOX = biological target: T1, soybean 15-LOX (Glycine max, UniProt P08170); test: 15-LOX inhibitor screening assay (Cayman); type: biochemical; details: mean ± SEM, n = 3 replicates
T1 sequence (P08170 1-839): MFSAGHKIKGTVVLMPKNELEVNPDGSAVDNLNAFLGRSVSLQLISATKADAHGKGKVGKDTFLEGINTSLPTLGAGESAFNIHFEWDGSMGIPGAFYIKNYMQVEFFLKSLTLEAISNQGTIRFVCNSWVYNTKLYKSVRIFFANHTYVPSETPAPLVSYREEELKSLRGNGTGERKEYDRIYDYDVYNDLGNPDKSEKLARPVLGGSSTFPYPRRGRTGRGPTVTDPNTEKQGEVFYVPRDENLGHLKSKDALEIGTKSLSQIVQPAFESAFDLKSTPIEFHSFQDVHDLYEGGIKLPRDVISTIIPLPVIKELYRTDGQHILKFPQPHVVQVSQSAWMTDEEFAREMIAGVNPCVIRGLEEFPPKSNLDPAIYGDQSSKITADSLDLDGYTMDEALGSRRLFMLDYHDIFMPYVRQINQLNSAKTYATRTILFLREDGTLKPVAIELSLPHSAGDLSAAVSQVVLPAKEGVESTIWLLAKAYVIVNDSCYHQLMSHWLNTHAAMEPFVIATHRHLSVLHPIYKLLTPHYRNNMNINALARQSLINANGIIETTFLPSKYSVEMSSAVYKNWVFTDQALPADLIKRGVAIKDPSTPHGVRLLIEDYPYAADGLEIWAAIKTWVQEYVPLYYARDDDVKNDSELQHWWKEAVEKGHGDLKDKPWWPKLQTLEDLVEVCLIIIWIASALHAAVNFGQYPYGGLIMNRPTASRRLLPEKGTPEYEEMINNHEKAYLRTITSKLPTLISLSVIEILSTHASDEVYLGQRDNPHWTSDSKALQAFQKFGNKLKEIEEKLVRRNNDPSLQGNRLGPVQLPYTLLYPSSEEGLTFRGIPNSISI

HOP-62 = test: NCI single dose screen, HOP-62; type: cell-based; details: Homo sapiens; HOP-62, non-small cell lung cancer; single dose 10^−5 M; read-out: growth inhibition percentage
Protocol: (§1) Screening of the anticancer activity of the newly synthesised compounds (6a, 6c, 6d, 6e, 6j, 6l, 6m, 6n, 6o, and 6p) was performed by the US National Cancer Institute (NCI) using 60 different human tumour cell lines in accordance with standard procedures formerly reported.
(§2) In vitro anticancer screening was carried out for the selected compounds at a single dose (10^−5 M) against 60 different human tumour cell lines of nine different cancer cell types: leukaemia, lung, colon, CNS, melanoma, ovarian, renal, prostate, and breast cancers.

T-47D = test: NCI single dose screen, T-47D; type: cell-based; details: Homo sapiens, T47D, breast cancer, single dose 10^−5 M, read-out: growth inhibition percentage
Protocol: as §1, §2

SF-539 = test: NCI single dose screen, SF-539; type: cell-based; details: Homo sapiens, read-out: growth inhibition percentage
Protocol: as §1, §2

HOP-92 = test: NCI single dose screen, HOP-92; type: cell-based; details: Homo sapiens; HOP-92, non-small cell lung cancer; single dose 10^−5 M; read-out: growth inhibition percentage
Protocol: as §1, §2

OVCAR-4 = test: NCI single dose screen, OVCAR-4; type: cell-based; details: Homo sapiens; OVCAR-4, ovarian cancer; single dose 10^−5 M; read-out: growth inhibition percentage
Protocol: as §1, §2

DU-145 = test: NCI single dose screen, DU-145; type: cell-based; details: Homo sapiens; DU-145, prostate cancer; single dose 10^−5 M; read-out: growth inhibition percentage
Protocol: as §1, §2

NCI/ADR-RES = test: NCI single dose screen, NCI/ADR-RES; type: cell-based; details: Homo sapiens, ovarian cancer, single dose 10^−5 M, read-out: growth inhibition percentage
Protocol: as §1, §2

K-562 = test: NCI single dose screen, K-562; type: cell-based; details: Homo sapiens, K562; K-562, leukaemia; single dose 10^−5 M; read-out: growth inhibition percentage
Protocol: as §1, §2

UO-31 = test: NCI single dose screen, UO-31; type: cell-based; details: Homo sapiens; UO-31, renal cancer; single dose 10^−5 M; read-out: growth inhibition percentage
Protocol: as §1, §2

[1] = system: LPS-induced NO production in RAW 264.7 cells; test: NO production in LPS-activated RAW 264.7 macrophage cells (DAF-FM diacetate); type: cell-based; details: LPS-activated RAW 264.7 cells, mean ± SEM, three replicates; for IC50: Mus musculus, RAW264.7
Protocol: TNF-α and IL-6 production were detected in RAW 264.7 macrophage cell culture supernatants following the induction of inflammation by LPS. Moreover, the probes of oxidative species 2,7-dichlorofluorescein diacetate (DCFH-DA) (Molecular Probes) and NO, 4-amino-5-methylamino-2,7-difluorofluorescein diacetate (DAF-FM diacetate) (Molecular Probes) were used to investigate the antioxidant and NO production inhibitory potential of the test compounds. Briefly, RAW 264.7 cells were cultured in black 96 well plates (200 000 cells/mL, 100 µl/well) for 24 h followed by the incubation with the individual test compounds or the reference drugs at different concentrations (12.5, 25, 50, and 100 µM) for 2 h at 37 °C. LPS was then added at a final concentration of 1 µg/mL for an additional 18 h. The cell culture supernatant was collected from cells treated with the different compounds at 25 µM to measure TNF-α and IL-6 levels (1:10 dilution) using DuoSet ELISA kits (R&D Systems, Minneapolis, MN) following the manufacturer’s instructions. Then, the plates were washed to perform ROS and NO detection assays as detailed in our previous studies[16]^,[27].

SN12C = test: NCI single dose screen, SN12C; type: cell-based; details: Homo sapiens, renal cancer, single dose 10^−5 M, read-out: growth inhibition percentage
Protocol: as §1, §2

NCI-H460 = test: NCI single dose screen, NCI-H460; type: cell-based; details: Homo sapiens; NCI-H460, non-small cell lung cancer; single dose 10^−5 M; read-out: growth inhibition percentage
Protocol: as §1, §2

NCI-H226 = test: NCI single dose screen, NCI-H226; type: cell-based; details: Homo sapiens; NCI-H226, non-small cell lung cancer; single dose 10^−5 M; read-out: growth inhibition percentage
Protocol: as §1, §2

CAKI-1 = test: NCI single dose screen, CAKI-1; type: cell-based; details: Homo sapiens; CAKI-1, renal cancer; single dose 10^−5 M; read-out: growth inhibition percentage
Protocol: as §1, §2

SK-MEL-2 = test: NCI single dose screen, SK-MEL-2; type: cell-based; details: Homo sapiens; SK-MEL-2, melanoma; single dose 10^−5 M; read-out: growth inhibition percentage
Protocol: as §1, §2

SF-295 = test: NCI single dose screen, SF-295; type: cell-based; details: Homo sapiens; SF-295, CNS cancer; single dose 10^−5 M; read-out: growth inhibition percentage
Protocol: as §1, §2

TK-10 = test: NCI single dose screen, TK-10; type: cell-based; details: Homo sapiens; TK-10, renal cancer; single dose 10^−5 M; read-out: growth inhibition percentage
Protocol: as §1, §2

| SMILES | IC50 (soybean 15-LOX) | inhibition at 10 µM (HOP-62) | inhibition at 10 µM (T-47D) | inhibition at 10 µM (SF-539) | inhibition at 10 µM (HOP-92) | inhibition at 10 µM (OVCAR-4) | inhibition at 10 µM (DU-145) | inhibition at 10 µM (NCI/ADR-RES) | inhibition at 10 µM (K-562) | inhibition at 10 µM (UO-31) | NO IC50 [1] | IC50 [1] | inhibition at 10 µM (SN12C) | inhibition at 10 µM (NCI-H460) | inhibition at 10 µM (NCI-H226) | inhibition at 10 µM (CAKI-1) | inhibition at 10 µM (SK-MEL-2) | inhibition at 10 µM (SF-295) | inhibition at 10 µM (TK-10) |
| --- | --- | --- | --- | --- | --- | --- | --- | --- | --- | --- | --- | --- | --- | --- | --- | --- | --- | --- | --- |
| CN1c2ccccc2C(=O)N(NC(=O)Nc2ccccc2)C1c1ccc([N+](=O)[O-])cc1 (stereo not shown) [Compound 6e, 1-(1-Methyl-2-(4-nitrophenyl)-4-oxo-1,4-dihydroquinazolin-3(2H)-yl)-3-phenylurea] | 1760 ± 270 nM | < 10% | < 10% | < 10% | < 10% | < 10% | < 10% | < 10% | < 10% | 14.4% | did not show any significant NO inhibitory activity | > 100000 nM | < 10% | < 10% | < 10% | < 10% | < 10% | < 10% | < 10% |
| CN1c2ccccc2C(=O)N(NC(=O)Nc2ccccc2)C1c1ccccc1 (stereo not shown) [Compound 6c, 1-(1-Methyl-4-oxo-2-phenyl-1,4-dihydroquinazolin-3(2H)-yl)-3-phenylurea] | 1360 ± 190 nM | < 10% | < 10% | < 10% | < 10% | < 10% | < 10% | < 10% | < 10% | 19.5% |  | 1540 ± 1020 nM | < 10% | < 10% | < 10% | < 10% | < 10% | < 10% | < 10% |
| CN1c2ccccc2C(=O)N(NC(=O)Nc2ccccc2)C1c1ccc(F)cc1 (stereo not shown) [Compound 6d, 1-(2-(4-Fluorophenyl)-1-methyl-4-oxo-1,4-dihydroquinazolin-3(2H)-yl)-3-phenylurea] | 1960 ± 230 nM | < 10% | < 10% | < 10% | < 10% | < 10% | < 10% | < 10% | < 10% | 36.2% |  | 4120 ± 650 nM | < 10% | < 10% | < 10% | 13% | < 10% | < 10% | < 10% |
